Key:
Assay type in all cases: in vivo
[1] = tested on: barnyardgrass (Echinochloa crus-galli); test: Test G Pre-Emergence Protocol; details: Echinochloa crus-galli, pre-emergence, 312 h, evaluated after 13 days; for pest or weed control at 15.625 g/ha: 15.625 g ai/ha, read-out: Barnyard grass damage rating (100=total damage to plant; 0=no damage to plant); for pest or weed control at 62.5 g/ha: 62.5 g ai/ha, 100=total damage to plant, 0=no damage to plant, read-out: plant damage rating, Barnyardgrass; for pest or weed control at 250 g/ha: 250 g ai/ha, read-out: Barnyardgrass damage rating (100=total damage to plant; 0=no damage to plant)
How it was run: (§1)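 Pots of seeds in standard soil were grown for one day in a glasshouse (24/16 °C day/night, 14 h light, 65% humidity), then sprayed with compound in acetone/water 50:50 with 0.5% Tween 20 at 15.625, 62.5 or 250 g/ha. Damage was scored after 13 days on a 0 (none) to 100 (total) scale.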

corn (Zea mays) [2] = test: Test G Pre-Emergence Protocol; details: Zea mays, pre-emergence, 312 h, evaluated after 13 days; for plant injury at 15.625 g/ha: 15.625 g ai/ha; for plant injury at 15.625 g/ha / plant injury at 250 g/ha: read-out: Corn damage rating (100=total damage to plant; 0=no damage to plant); for plant injury at 62.5 g/ha: 62.5 g ai/ha, 100=total damage to plant, 0=no damage to plant, read-out: plant damage rating, Corn; for plant injury at 250 g/ha: 250 g ai/ha
How it was run: as §1

[3] = tested on: giant foxtail (Setaria faberi); test: Test G Pre-Emergence Protocol; details: Setaria faberi, pre-emergence, 312 h, evaluated after 13 days; for pest or weed control at 15.625 g/ha: 15.625 g ai/ha; for pest or weed control at 15.625 g/ha / pest or weed control at 250 g/ha: read-out: Foxtail, Giant damage rating (100=total damage to plant; 0=no damage to plant); for pest or weed control at 62.5 g/ha: 62.5 g ai/ha, 100=total damage to plant, 0=no damage to plant, read-out: plant damage rating, Foxtail, Giant; for pest or weed control at 250 g/ha: 250 g ai/ha
How it was run: as §1

[4] = tested on: ivy-leaved morning glory (Ipomoea hederacea); test: Test G Pre-Emergence Protocol; details: Ipomoea, pre-emergence, 312 h, evaluated after 13 days; for pest or weed control at 15.625 g/ha: 15.625 g ai/ha, read-out: Morning-glory, Ivy-leaved damage rating (100=total damage to plant; 0=no damage to plant); for pest or weed control at 62.5 g/ha: 62.5 g ai/ha, 100=total damage to plant, 0=no damage to plant, read-out: plant damage rating, Morningglory, Ivy-leaved; for pest or weed control at 250 g/ha: 250 g ai/ha, read-out: Morningglory, Ivy-leaved damage rating (100=total damage to plant; 0=no damage to plant)
How it was run: as §1

[5] = tested on: redroot pigweed (Amaranthus retroflexus); test: Test G Pre-Emergence Protocol; details: Amaranthus retroflexus, pre-emergence, 312 h, evaluated after 13 days; for pest or weed control at 15.625 g/ha: 15.625 g ai/ha; for pest or weed control at 15.625 g/ha / pest or weed control at 250 g/ha: read-out: Pigweed, Redroot damage rating (100=total damage to plant; 0=no damage to plant); for pest or weed control at 62.5 g/ha: 62.5 g ai/ha, 100=total damage to plant, 0=no damage to plant, read-out: plant damage rating, Pigweed, Redroot; for pest or weed control at 250 g/ha: 250 g ai/ha
How it was run: as §1

[6] = tested on: velvetleaf (Abutilon theophrasti); test: Test G Pre-Emergence Protocol; details: Abutilon theophrasti, pre-emergence, 312 h, evaluated after 13 days; for pest or weed control at 15.625 g/ha: 15.625 g ai/ha; for pest or weed control at 15.625 g/ha / pest or weed control at 250 g/ha: read-out: Velvetleaf damage rating (100=total damage to plant; 0=no damage to plant); for pest or weed control at 62.5 g/ha: 62.5 g ai/ha, 100=total damage to plant, 0=no damage to plant, read-out: plant damage rating, Velvetleaf; for pest or weed control at 250 g/ha: 250 g ai/ha
How it was run: as §1

[7] = tested on: barnyardgrass (Echinochloa crus-galli); test: Test G Post-Emergence Protocol; details: Echinochloa crus-galli, post-emergence, 312 h; for pest or weed control at 15.625 g/ha: 15.625 g ai/ha, evaluated after 13 days (100=total damage to plant; 0=no damage to plant), read-out: Barnyardgrass damage rating; for pest or weed control at 62.5 g/ha: 62.5 g ai/ha, read-out: Barnyardgrass damage rating (100=total damage to plant; 0=no damage to plant); for pest or weed control at 62.5 g/ha / pest or weed control at 250 g/ha: evaluated after 13 days; for pest or weed control at 250 g/ha: 250 g ai/ha, read-out: damage to plant, Barnyardgrass (100=total damage to plant; 0=no damage to plant)
How it was run: (§2)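 Post-emergence herbicidal damage, scored visually 0–100 at 13 days. Application at 15.625, 62.5 or 250 g/ha onto 8-day-old plants grown under glasshouse control.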

corn (Zea mays) [8] = test: Test G Post-Emergence Protocol; details: Zea mays, post-emergence, 312 h; for plant injury at 15.625 g/ha: 15.625 g ai/ha, evaluated after 13 days (100=total damage to plant; 0=no damage to plant), read-out: Corn damage rating; for plant injury at 62.5 g/ha: 62.5 g ai/ha, read-out: Corn damage rating (100=total damage to plant; 0=no damage to plant); for plant injury at 62.5 g/ha / plant injury at 250 g/ha: evaluated after 13 days; for plant injury at 250 g/ha: 250 g ai/ha, read-out: damage to plant, Corn (100=total damage to plant; 0=no damage to plant)
How it was run: as §2

[9] = tested on: giant foxtail (Setaria faberi); test: Test G Post-Emergence Protocol; details: Setaria faberi, post-emergence, 312 h; for pest or weed control at 15.625 g/ha: 15.625 g ai/ha, evaluated after 13 days (100=total damage to plant; 0=no damage to plant), read-out: Foxtail, Giant damage rating; for pest or weed control at 62.5 g/ha: 62.5 g ai/ha, read-out: Foxtail, Giant damage rating (100=total damage to plant; 0=no damage to plant); for pest or weed control at 62.5 g/ha / pest or weed control at 250 g/ha: evaluated after 13 days; for pest or weed control at 250 g/ha: 250 g ai/ha, read-out: damage to plant, Foxtail, Giant (100=total damage to plant; 0=no damage to plant)
How it was run: as §2

[10] = tested on: ivy-leaved morning glory (Ipomoea hederacea); test: Test G Post-Emergence Protocol; details: Ipomoea, post-emergence, 312 h; for pest or weed control at 15.625 g/ha: 15.625 g ai/ha, evaluated after 13 days (100=total damage to plant; 0=no damage to plant), read-out: Morningglory, Ivy-leaved damage rating; for pest or weed control at 62.5 g/ha: 62.5 g ai/ha, read-out: Morningglory, Ivy-leaved damage rating (100=total damage to plant; 0=no damage to plant); for pest or weed control at 62.5 g/ha / pest or weed control at 250 g/ha: evaluated after 13 days; for pest or weed control at 250 g/ha: 250 g ai/ha, read-out: damage to plant, Morningglory, Ivy-leaved (100=total damage to plant; 0=no damage to plant)
How it was run: as §2

[11] = tested on: redroot pigweed (Amaranthus retroflexus); test: Test G Post-Emergence Protocol; details: Amaranthus retroflexus, post-emergence, 312 h; for pest or weed control at 15.625 g/ha: 15.625 g ai/ha, evaluated after 13 days (100=total damage to plant; 0=no damage to plant), read-out: Pigweed, Redroot damage rating; for pest or weed control at 62.5 g/ha: 62.5 g ai/ha, read-out: Pigweed, Redroot damage rating (100=total damage to plant; 0=no damage to plant); for pest or weed control at 62.5 g/ha / pest or weed control at 250 g/ha: evaluated after 13 days; for pest or weed control at 250 g/ha: 250 g ai/ha, read-out: damage to plant, Pigweed, Redroot (100=total damage to plant; 0=no damage to plant)
How it was run: as §2

[12] = tested on: velvetleaf (Abutilon theophrasti); test: Test G Post-Emergence Protocol; details: Abutilon theophrasti, post-emergence, 312 h; for pest or weed control at 15.625 g/ha: 15.625 g ai/ha, evaluated after 13 days (100=total damage to plant; 0=no damage to plant), read-out: Velvetleaf damage rating; for pest or weed control at 62.5 g/ha: 62.5 g ai/ha, read-out: Velvetleaf damage rating (100=total damage to plant; 0=no damage to plant); for pest or weed control at 62.5 g/ha / pest or weed control at 250 g/ha: evaluated after 13 days; for pest or weed control at 250 g/ha: 250 g ai/ha, read-out: damage to plant, Velvetleaf (100=total damage to plant; 0=no damage to plant)
How it was run: as §2

Structure (SMILES)	pest or weed control at 15.625 g/ha [1]	pest or weed control at 62.5 g/ha [1]	pest or weed control at 250 g/ha [1]	plant injury at 15.625 g/ha (corn (Zea mays) [2])	plant injury at 62.5 g/ha (corn (Zea mays) [2])	plant injury at 250 g/ha (corn (Zea mays) [2])	pest or weed control at 15.625 g/ha [3]	pest or weed control at 62.5 g/ha [3]	pest or weed control at 250 g/ha [3]	pest or weed control at 15.625 g/ha [4]	pest or weed control at 62.5 g/ha [4]	pest or weed control at 250 g/ha [4]	pest or weed control at 15.625 g/ha [5]	pest or weed control at 62.5 g/ha [5]	pest or weed control at 250 g/ha [5]	pest or weed control at 15.625 g/ha [6]	pest or weed control at 62.5 g/ha [6]	pest or weed control at 250 g/ha [6]	pest or weed control at 15.625 g/ha [7]	pest or weed control at 62.5 g/ha [7]	also measured
CN1C[C@@H](c2ccc(C(F)(F)F)cc2)[C@H](C(=O)Nc2cccc(F)c2C(F)(F)F)C1=O (racemic) [Compound 1609]	20%	50%	80%	0%	10%	40%	70%	80%	80%	10%	20%	70%	20%	40%	70%	10%	10%	30%	20%	70%	pest or weed control at 250 g/ha [7]: 70%; plant injury at 15.625 g/ha (corn (Zea mays) [8]): 10%; plant injury at 62.5 g/ha (corn (Zea mays) [8]): 10%; plant injury at 250 g/ha (corn (Zea mays) [8]): 60%; pest or weed control at 15.625 g/ha [9]: 70%; pest or weed control at 62.5 g/ha [9]: 80%; pest or weed control at 250 g/ha [9]: 80%; pest or weed control at 15.625 g/ha [10]: 20%; pest or weed control at 62.5 g/ha [10]: 20%; pest or weed control at 250 g/ha [10]: 70%; pest or weed control at 15.625 g/ha [11]: 30%; pest or weed control at 62.5 g/ha [11]: 70%; pest or weed control at 250 g/ha [11]: 70%; pest or weed control at 15.625 g/ha [12]: 0%; pest or weed control at 62.5 g/ha [12]: 20%; pest or weed control at 250 g/ha [12]: 50%
CN1C[C@@H](c2ccc(C(F)(F)F)cc2)[C@H](C(=O)Nc2nn[nH]n2)C1=O (racemic) [Compound 1612]	0%	0%	0%	0%	0%	0%	0%	0%	0%	0%	0%	0%	0%	0%	0%	0%	0%	0%	0%	0%	pest or weed control at 250 g/ha [7]: 0%; plant injury at 15.625 g/ha (corn (Zea mays) [8]): 0%; plant injury at 62.5 g/ha (corn (Zea mays) [8]): 0%; plant injury at 250 g/ha (corn (Zea mays) [8]): 0%; pest or weed control at 15.625 g/ha [9]: 0%; pest or weed control at 62.5 g/ha [9]: 0%; pest or weed control at 250 g/ha [9]: 0%; pest or weed control at 15.625 g/ha [10]: 0%; pest or weed control at 62.5 g/ha [10]: 0%; pest or weed control at 250 g/ha [10]: 0%; pest or weed control at 15.625 g/ha [11]: 0%; pest or weed control at 62.5 g/ha [11]: 0%; pest or weed control at 250 g/ha [11]: 0%; pest or weed control at 15.625 g/ha [12]: 0%; pest or weed control at 62.5 g/ha [12]: 0%; pest or weed control at 250 g/ha [12]: 0%
